Like-named read-outs stand apart in the source and are kept apart here.
Assays:
[1] = NOAEL, repeated daily doses in the animal; format: in vivo; settings: extrapolated from the animal NOAEL
Procedure: In man the NOAEL is 6 mg.

[2] = doses repeated daily in the animal; cited from earlier work
[3] = in man; cited from earlier work
[4] = molecular target: T1, HMG-CoA reductase (HMG-CoA-r) (Homo sapiens, UniProt P04035); settings: competitive enzymatic inhibition; cited from earlier work
T1 sequence (P04035 1-888): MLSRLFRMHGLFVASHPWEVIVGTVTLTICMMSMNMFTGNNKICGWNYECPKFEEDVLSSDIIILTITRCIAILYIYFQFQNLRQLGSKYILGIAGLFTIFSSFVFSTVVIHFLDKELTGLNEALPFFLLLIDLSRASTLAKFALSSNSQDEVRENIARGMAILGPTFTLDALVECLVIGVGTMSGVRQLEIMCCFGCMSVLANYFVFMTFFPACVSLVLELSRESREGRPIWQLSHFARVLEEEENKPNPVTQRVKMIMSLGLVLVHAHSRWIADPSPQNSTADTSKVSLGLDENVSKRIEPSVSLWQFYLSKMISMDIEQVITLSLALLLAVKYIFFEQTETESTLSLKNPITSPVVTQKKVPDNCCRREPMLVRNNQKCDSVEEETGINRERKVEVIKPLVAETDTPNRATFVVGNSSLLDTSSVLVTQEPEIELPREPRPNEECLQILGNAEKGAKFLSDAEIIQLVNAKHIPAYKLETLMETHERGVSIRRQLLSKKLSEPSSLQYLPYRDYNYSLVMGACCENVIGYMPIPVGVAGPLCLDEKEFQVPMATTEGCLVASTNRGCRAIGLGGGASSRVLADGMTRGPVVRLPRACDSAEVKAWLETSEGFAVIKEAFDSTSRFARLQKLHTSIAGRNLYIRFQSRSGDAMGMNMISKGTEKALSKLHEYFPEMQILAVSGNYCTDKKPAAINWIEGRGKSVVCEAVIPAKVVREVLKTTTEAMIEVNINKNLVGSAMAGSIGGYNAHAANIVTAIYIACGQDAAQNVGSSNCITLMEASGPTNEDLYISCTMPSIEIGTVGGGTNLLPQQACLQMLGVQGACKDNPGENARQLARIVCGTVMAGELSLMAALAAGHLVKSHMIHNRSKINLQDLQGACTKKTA

Structure (SMILES)	NOAEL of the animal, corresponding amount in man [1]	NOAEL (no observed adverse effect level) [2] [mg/kg]	NOAEL (no observed adverse effect level) [3] [mg]	activity for the enzyme relative to the natural substrate HMG-CoA [4] [times]
CC1=C(/C=C/C(C)=C/C=C/C(C)=C/C=C/C=C(C)/C=C/C=C(C)/C=C/C2=C(C)C(=O)[C@@H](O)CC2(C)C)C(C)(C)C[C@H](O)C1=O [AX, 3,3′-dihydroxy-β,β′-carotene-4,4′-dione]	more than 80 g	1340	6	–
CC[C@H](C)C(=O)O[C@H]1C[C@@H](C)C=C2C=C[C@H](C)[C@H](CC[C@@H]3C[C@@H](O)CC(=O)O3)[C@H]21 [Monacolin K]	–	–	–	2000

From patent publication US20080102082A1, “Formulation for Oral Administration Having a Health-Promoting Effect on the Cardiovascular System” (ROTTAPHARM S.p.A., priority 2004, published 2008)
